Laboratory results reported in patent publication US20110296540A1, “ASSAY FOR SCREENING ANTIDEPRESSANTS” (priority 2008, published 2011).

Assays:
C57BL/6Ntac mice [1] = experiment: Forced Swim Test, chronic corticosterone model; format: in vivo; conditions: for immobility duration (FST): mean±SEM
1A-High and 1A-Low mice = experiment: Novelty-suppressed feeding paradigm in 1A-High and 1A-Low mice; format: in vivo; conditions: twenty-five days, 18 mg/kg/day p.o.
From the text: The NSF paradigm is a test of hyponeophagia that measures the latency of a mouse to consume food placed in the middle of a brightly lit, aversive arena.

[2] = tested on: proliferating neural progenitors; experiment: BrdU labelling of cell proliferation in the dentate gyrus; format: in vivo, mice
Description: Immunohistochemistry and confocal imaging. Mice were anesthetized with ketamine/xylazine (100 and 7 mg/kg, respectively) and transcardially perfused (cold saline, followed by 4% cold paraformaldehyde in PBS). […] Immunohistochemistry was performed in the following steps: 2 h incubation in 1:1 formamide/2×SSC at 65° C., 5 min rinse in 2×SSC, 30 min incubation in 2N HCl at 37° C., and 10 min rinse in 0.1M boric acid, pH 8.5, 2 h incubation in 0.1M PBS with 0.3% Triton X-100, and 5% normal donkey serum. Sections were then incubated overnight at 4° C. in primary antibodies for doublecortin (goat; 1:500; Santa Cruz Biotechnology, Santa Cruz, Calif.), bromodeoxyuridine (BrdU; rat; 1:100; Serotec, Oxford, UK), and neuronal-specific nuclear protein (NeuN) (mouse; 1:500; Chemicon, Temecula, Calif.). Biotinylated or fluorescent secondary antibodies were used. All secondary antibodies were purchased from Jackson ImmunoResearch (West Grove, Pa.). DCX staining for Sholl analysis was done as follows: sections were rinsed in PBS, treated with 1% H2O2 in 1:1 PBS and methanol for 15 min to quench endogenous peroxidase activity (and to enhance dendritic staining), incubated in 10% normal donkey serum and 0.3% Triton X-100 for 30 min, and then incubated overnight at 4° C. in primary antibody for doublecortin. […] Stereological procedure was used to quantify labeled cells (Malberg et al., 2000 ? ). […]

newborn granule cells = experiment: Survival and maturation of newborn granule cells (BrdU/DCX/NeuN triple staining); format: in vivo, mice
Description: Immunohistochemistry and confocal imaging. Mice were anesthetized with ketamine/xylazine (100 and 7 mg/kg, respectively) and transcardially perfused (cold saline, followed by 4% cold paraformaldehyde in PBS). […] Serial sections were cut through the entire hippocampus (Franklin and Paxinos, 1997) using a cryostat and stored in PBS. Immunohistochemistry was performed in the following steps: 2 h incubation in 1:1 formamide/2×SSC at 65° C., 5 min rinse in 2×SSC, 30 min incubation in 2N HCl at 37° C., and 10 min rinse in 0.1M boric acid, pH 8.5, 2 h incubation in 0.1M PBS with 0.3% Triton X-100, and 5% normal donkey serum. Sections were then incubated overnight at 4° C. in primary antibodies for doublecortin (goat; 1:500; Santa Cruz Biotechnology, Santa Cruz, Calif.), bromodeoxyuridine (BrdU; rat; 1:100; Serotec, Oxford, UK), and neuronal-specific nuclear protein (NeuN) (mouse; 1:500; Chemicon, Temecula, Calif.). Biotinylated or fluorescent secondary antibodies were used. All secondary antibodies were purchased from Jackson ImmunoResearch (West Grove, Pa.). DCX staining for Sholl analysis was done as follows: sections were rinsed in PBS, treated with 1% H2O2 in 1:1 PBS and methanol for 15 min to quench endogenous peroxidase activity (and to enhance dendritic staining), incubated in 10% normal donkey serum and 0.3% Triton X-100 for 30 min, and then incubated overnight at 4° C. in primary antibody for doublecortin. After secondary antibody incubation, sections were developed using Vector ABC kit and DAB kit. Bright-field images were taken with a Zeiss (Oberkochen, Germany) Axioplan-2 upright microscope. Stereological procedure was used to quantify labeled cells (Malberg et al., 2000 ? ). All cell counting for triple-stained sections were done using a Zeiss LSM 510 META confocal microscope.
As depicted in FIG. 4A, BrdU (75 mg/kg) was given four times over 8 h on day 0 to achieve maximum labeling of proliferating progenitors over a restricted time window. […] Hippocampal sections were triple stained for BrdU, DCX, and NeuN (FIG. 4B,C). Image acquisition and cell counting were performed using a Zeiss LSM META 510 confocal microscopy.

C57BL/6Ntac mice [3] = experiment: Splash test (grooming); format: in vivo; conditions: corticosterone, without or with 3 weeks of fluoxetine 18 mg/kg/day; mean±SEM
Description: This test consisted in squirting 200 ul of a 10% sucrose solution on the mouse's snout. The grooming duration and grooming frequency were then recorded.

C57BL/6Ntac mice [4] = experiment: Changes in coat state
[5] = tested on: β-arrestin 2 knock out mice; experiment: Novelty Suppressed Feeding paradigm in β-arrestin 2 knock out mice and littermates; format: in vivo
From the text: Twenty-four hours prior to behavioral testing, all food was removed from the home cage. At the time of testing, a single pellet of food (regular chow) was placed on a white paper platform positioned in the center of the box.

[6] = after 3 weeks of fluoxetine, mean±SEM

With `CNCCC(Oc1ccc(C(F)(F)F)cc1)c1ccccc1` (stereo not shown) [fluoxetine] the “immobility duration (FST)” value (C57BL/6Ntac mice [1]; corticosterone treated animals, alone or with antidepressant) was 311.4 s, the “immobility duration (FST)” value (C57BL/6Ntac mice [1]; non-corticosterone treated animals) was 302.9 s and the “duration of immobility (FST), effect” value (C57BL/6Ntac mice [1]; two-way ANOVA, corticosterone 7 weeks, antidepressants last 3 weeks) was “decreased”. For the same compound, the “latency to feed (NSF), response to fluoxetine” value (1A-High and 1A-Low mice; 1A-High mice) was “no response”, the “latency to feed (NSF), response to fluoxetine” value (1A-High and 1A-Low mice; 1A-Low mice) was “responded robustly” and the “number of BrdU cells in the granule cell layer (GCL)” value ([2]; chronic (28 d) fluoxetine 18 mg/kg/d vs vehicle) was “increased”. For the same compound, the “number of BrdU+ cells” value ([2]; sham animals of the irradiation experiment, 28 d of fluoxetine) was “increase”, the “number of BrdU+NeuN+DCX+ cells” value (newborn granule cells; 3 and 4 weeks of fluoxetine) was “did not have an effect” and the “number of cells expressing both BrdU and NeuN” value (newborn granule cells; 3 and 4 weeks of fluoxetine) was “also increased”. The “pool of mature BrdU+NeuN+DCX− cells” value (newborn granule cells; 3 and 4 weeks of fluoxetine) was “significantly increased”, the “total number of BrdU+ cells in the GCL (survival)” value (newborn granule cells; 3 and 4 weeks of fluoxetine begun 24 h after BrdU) was “significantly increased” and the “proportion of BrdU cells that are NeuN+” value (newborn granule cells; 5 d of fluoxetine) was “did not change”. The “transition of BrdU immature cells from DCX+NeuN− stage to DCX+NeuN+ stage” value (newborn granule cells; 5 d of fluoxetine) was “did not change”, the “proportion of BrdU+NeuN+ cells that ceased to express DCX” value (newborn granule cells; [6]) was 39.24±1.78 and the “proportion of BrdU+NeuN+ cells that express DCX” value (newborn granule cells; [6]) was 51.64±3.71%. The “survival of immature neurons as measured by BrdU” value (newborn granule cells; subchronic, 5 d) was “did not change”, the “grooming duration (splash test)” value (C57BL/6Ntac mice [3]) was 99.8 s and the “grooming frequency (splash test)” value (C57BL/6Ntac mice [3]) was 9±1. The “deterioration of the coat state induced by chronic corticosterone” value (C57BL/6Ntac mice [4]; 3 week fluoxetine regimen) was “reversed”, the “coat state total score (sum of five body parts)” value (C57BL/6Ntac mice [4]; chronic corticosterone, without or with 3 week fluoxetine, mean±SEM) was 1.80±0.08 and the “latency to feed (NSF)” value ([5]; mutant (β-arrestin 2 knock out) mice) was “had no effect”. The “latency to feed (NSF)” value ([5]; wild-type mice) was “significantly decreased”.
